Data as given in patent US9682966B2, “Kappa opioid ligands” (The Scripps Research Institute, priority 2012, dated 2017).

target: kappa opioid receptor (OPRK1) (Homo sapiens (Human), UniProt P41145); experiment: OPRK1 antagonist assay (b-arrestin-2-TEV / b-lactamase reporter, EC80 U-50488 challenge); type: cell-based; conditions: % inhibition to which the printed IC50 value refers, if other than 50%
Sequence (P41145 whole entry): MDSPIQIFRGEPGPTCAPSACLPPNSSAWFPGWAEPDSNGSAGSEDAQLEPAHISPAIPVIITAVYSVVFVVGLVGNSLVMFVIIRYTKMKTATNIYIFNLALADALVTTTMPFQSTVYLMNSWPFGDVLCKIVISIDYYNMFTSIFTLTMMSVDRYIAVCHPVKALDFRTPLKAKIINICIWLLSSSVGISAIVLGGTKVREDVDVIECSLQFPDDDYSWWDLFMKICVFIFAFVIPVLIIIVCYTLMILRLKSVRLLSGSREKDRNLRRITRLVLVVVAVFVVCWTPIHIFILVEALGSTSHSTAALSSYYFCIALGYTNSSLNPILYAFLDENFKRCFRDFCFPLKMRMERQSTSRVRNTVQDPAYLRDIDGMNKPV

| % inhib if other than 50% [%] | Structure (SMILES) |
| --- | --- |
| 80 | COC(=O)c1cc(Br)cnc1N1CCC(NCCO)CC1 [compound 6] |
| 85 | O=C(O)c1cc(Br)cnc1N1CCC(NC2CCCCC2)CC1 [compound 34] |

same assay, conditions: OPRK1 antagonist assay vs EC80 U-50488

| IC50 [µM] | Structure (SMILES) |
| --- | --- |
| > 10 | COC(=O)c1cnc(N2CCC(N(C(=O)OC(C)(C)C)C3CCCCC3)CC2)c(Br)c1 [C44] |
| > 10 | O=Cc1cc(Br)cnc1N1CCC(NC2CCCCC2)CC1 [C45] |
| > 10 | O=Cc1cc(Br)cnc1N1CCC(NC2CCCCC2)C(CO)C1 (stereo not shown) [C46] |
| > 10 | O=Cc1cc(Br)cnc1N1CCC(NC2CCCCC2)C(O)C1 (stereo not shown) [C47] |
| > 10 | COC(=O)c1cc(Br)cnc1N1CCC(N(C(C)=O)C2CCCCC2)C(OC(C)=O)C1 (stereo not shown) [C48] |
| > 10 | COC(=O)c1cc(Br)cnc1N1CCC(OC2CCCCC2O)CC1 (stereo not shown) [C50] |
| > 20 | COC(=O)c1cc(C#N)c(N2CCC(NC3CCCCC3)CC2)nc1C [C55] |
| > 20 | COC(=O)c1cc(C#N)c(N2CCC(NC3CCCCC3)C(CO)C2)nc1C (stereo not shown) [C56] |
| > 20 | COC(=O)c1cc(C#N)c(N2CCC(NC3CCCCC3)C(O)C2)nc1C (stereo not shown) [C57] |
| > 10 | CC(=O)c1cc(C2CC2)cnc1N1CC[C@@H](NC2CCCCC2)[C@H](O)C1 [C62] |
| > 10 | CC(=O)c1cc(C2CC2)cnc1N1CCC(NC2CCCCC2)C(CO)C1 (stereo not shown) [C63] |
| > 10 | CC(=O)c1cc(-c2ccccc2)cnc1N1CCC(NC2CCCCC2)C(CO)C1 (stereo not shown) [C64] |
| > 10 | CC(=O)c1cc(-c2ccccc2)cnc1N1CC[C@@H](NC2CCCCC2)[C@H](O)C1 [C65] |
| > 10 | Cc1ccc2nc(N3CCC(NC(=O)OC(C)(C)C)CC3)c(-c3nc(C)no3)cc2c1 [C71] |
| > 10 | Cc1ccc2nc(N3CCC(NC(C)CC(C)C)CC3)c(-c3nc(C)no3)cc2c1 (stereo not shown) [C72] |
| > 10 | Cc1ccc2nc(N3CCC(NC(C)C)CC3)c(-c3nc(C)no3)cc2c1 [C73] |
| > 10 | Cc1ccc2nc(N3CCC(C)(NC4CCOCC4)CC3)c(-c3nc(C)no3)cc2c1 [C74] |
| > 10 | Cc1ccc2nc(N3CCC(C)(NC4CCCCC4)CC3)c(-c3nc(C)no3)cc2c1 [C75] |

| IC50 [µM] | Structure (SMILES) |
| --- | --- |
| > 10 | Cc1ccc2nc(N3CCN(CC4CCCCC4)C(CO)C3)c(-c3nc(C)no3)cc2c1 (stereo not shown) [C76] |
| > 10 | Cc1ccc2nc(N3CCC(NC(=O)C4CCCCC4)CC3)c(-c3nc(C)no3)cc2c1 [C77] |
| > 10 | CCC(CC)C(=O)NC1CCN(c2nc3ccc(C)cc3cc2-c2nc(C)no2)CC1 [C78] |
| > 10 | COC1CN(c2nc3ccccc3cc2-c2ncc(C)o2)CCC1NC1CCCCC1 (stereo not shown) [C79] |
| > 10 | Cc1ccc2nc(N3CCCC(NC4CCCCC4)CC3)c(-c3nc(C)no3)cc2c1 (stereo not shown) [C80] |
| > 10 | Cc1cnc(-c2cc3ccccc3nc2N2CCC(NC3CCOCC3)CC2)o1 [C81] |
| > 10 | Cc1ccc2nc(N3CCC(N)CC3)c(-c3nc(C)no3)cc2c1 [C82] |
| > 10 | Cc1ccc2nc(N3CCC(CNC4CCCCC4)CC3)c(-c3nc(C)no3)cc2c1 [C84] |
| > 10 | Cc1ccc2nc(NCCCNC3CCOCC3)c(-c3nc(C)no3)cc2c1 [C85] |
| > 10 | Cc1ccc2nc(NCCCNC3CCCCC3)c(-c3nc(C)no3)cc2c1 [C86] |
| > 10 | CNC(=O)c1cc2cc(C)ccc2nc1N1CCC(NC2CCCCC2)C(CO)C1 (stereo not shown) [C89] |
| > 10 | Cc1noc(-c2cc3cc(C)c(C)cc3nc2N2CCC(NC3CCOCC3)CC2)n1 [C90] |
| 13 | COC(=O)c1cnc(N2CCC(NC3CCCCC3)C(CO)C2)c(Br)c1 (stereo not shown) [compound 102] |
| 0.137 | COC(=O)c1cnc(N2CCC(NC3CCCCC3)C(O)C2)c(Br)c1 (stereo not shown) [compound 103] |
| 4 | COC(=O)c1cnc(N2CC[C@@H](NC3CCCCC3)[C@H](O)C2)c(Br)c1 [compound 132] |
| 0.199 | Cc1noc(-c2cc3c(nc2N2CC[C@@H](NC4CCCCC4)[C@H](O)C2)CCCC3)n1 [compound 192] |
| 0.113 | CCc1noc(-c2cc3cc(C)ccc3nc2N2CC[C@@H](NC3CCCCC3)[C@H](O)C2)n1 [compound 335] |

Second part, the compound before the results:

| Structure (SMILES) | IC50 [µM] |
| --- | --- |
| COC(=O)c1cc(Br)cnc1N1CCC(N)CC1 [C1] | > 10 |
| COC(=O)c1cc(Br)cnc1N1CCC(NC(=O)OC(C)(C)C)CC1 [C2] | > 10 |
| COC(=O)c1cc(Br)cnc1N1CCC(N2CCOCC2)CC1 [C5] | > 10 |
| COC(=O)c1cc(Br)cnc1N1CCC(NC2CCC(O)CC2)CC1 (stereo not shown) [C6] | > 10 |
| COC(=O)c1cc(Br)cnc1N1CCC(Nc2ccccc2)CC1 [C7] | > 10 |
| COC(=O)c1cc(Br)cnc1N1CCC(N2CCN(C)CC2)CC1 [C8] | > 10 |
| COC(=O)c1cc(Br)cnc1N1CCC(N[C@@H]2CCCCC[C@@H]2O)CC1 [C9] | > 10 |
| O=C(c1ccccc1)N1CCC(N[C@@H]2CCCC[C@H]2O)CC1 [C10] | > 10 |
| Cc1cc(Cl)nc(N2CCC(N[C@@H]3CCCC[C@H]3O)CC2)c1C#N [C11] | > 10 |
| O[C@@H]1CCCC[C@H]1NC1CCN(c2ccc(Cl)cn2)CC1 [C12] | > 10 |
| COC(=O)c1cc(-c2ccccc2)cnc1N1CCC(NC2CCCCC2)CC1 [C13] | > 10 |
| COC(=O)c1cc(Br)cnc1N1CCCC(NC2CCCCC2)C1 (stereo not shown) [C14] | > 10 |
| COC(=O)c1cc(C2CC2)cnc1N1CCC(NC2CCCCC2)CC1 [C15] | > 10 |
| COC(=O)c1cc(Br)cnc1N1CCC(CN)CC1 [C16] | > 10 |
| COC(=O)c1cc(C2=CCCCC2)cnc1N1CCC(NC2CCCCC2)CC1 [C17] | > 10 |
| CCN(CC)C(=O)c1cc(Br)cnc1N1CCC(NC2CCCCC2)CC1 [C18] | > 10 |
| CN(C)C(=O)c1cc(Br)cnc1N1CCC(NC2CCCCC2)CC1 [C19] | > 10 |
| COC(=O)c1cc(Br)cnc1N1CCC(NC2CCCCC2)(C(=O)OC)CC1 [C21] | > 10 |
| COC(=O)c1cc(Br)cnc1N1CCC(NCc2ccccc2O)CC1 [C22] | > 10 |

| Structure (SMILES) | IC50 [µM] |
| --- | --- |
| COC(=O)c1cc(Br)cnc1N1CCC(NCc2ccccc2OC)CC1 [C23] | > 10 |
| COC(=O)c1ccc(C(F)(F)F)nc1N1CCC(NC2CCCCC2)CC1 [C24] | > 10 |
| FC(F)(F)c1cc(Br)cnc1N1CCC(NC2CCCCC2)CC1 [C25] | > 10 |
| CCOC(=O)c1c(C(F)(F)F)ccnc1N1CCC(NC2CCCCC2)CC1 [C26] | > 10 |
| CCOC(=O)c1cc(C(N)=O)c(C)nc1N1CCC(NC2CCCCC2)CC1 [C28] | > 10 |
| O=C(O)c1cc(Br)cnc1N1CCC(NC2CCCCC2)CC1 [C29] | > 10 |
| COC(=O)c1cc(NS(C)(=O)=O)cnc1N1CCC(NC2CCCCC2)CC1 [C30] | > 10 |
| COCCOC(=O)c1cc(Br)cnc1N1CCC(NC2CCCCC2)CC1 [C31] | > 10 |
| CCCCOC(=O)c1cc(Br)cnc1N1CCC(NC2CCCCC2)CC1 [C32] | > 10 |
| COC(=O)c1cc(NC(=O)CCN(C)C)cnc1N1CCC(NC2CCCCC2)CC1 [C33] | > 10 |
| COC(=O)c1cc(NC(=O)c2cc(C)on2)cnc1N1CCC(NC2CCCCC2)CC1 [C34] | > 10 |
| COC(=O)c1cc(NC(=O)C(C)(C)C)cnc1N1CCC(NC2CCCCC2)CC1 [C37] | > 10 |
| COC(=O)c1cnc(N2CCC(NC3CCCCC3)CC2)c(N)c1 [C38] | > 10 |
| COC(=O)c1cnc(N2CCC(NC3CCCCC3)CC2)c(NC(C)=O)c1 [C39] | > 10 |
| COC(=O)c1cnc(N2CCC(NC3CCCCC3)CC2)c(NS(C)(=O)=O)c1 [C40] | > 10 |
| COC(=O)c1cc(NC(=O)CN)cnc1N1CCC(NC2CCCCC2)CC1 [C41] | > 10 |
| COC(=O)c1cnc(N2CCC(NC3CCCCC3)CC2)c(Br)c1 [C43] | 15 |
| COC1CN(c2ncc(C)cc2-n2cc(C)cn2)CCC1NC1CCCCC1 (stereo not shown) [C92] | 58 |
| Cc1cnc(N2CCC(NCC(C)C)CC2)c(-c2ccc(C)nn2)c1 [C93] | 10.2 |

| Structure (SMILES) | IC50 [µM] |
| --- | --- |
| COC1CN(c2nc3ccc(C)cc3cc2-c2noc(C)n2)CCC1NC1CCCCC1 (stereo not shown) [compound 314] | 0.002 |
| CO[C@@H]1CN(c2nc3ccc(C)cc3cc2-c2nc(C)no2)CC[C@@H]1NC1CCCCC1 [compound 315] | 0.004 |
| Cc1ccc2nc(N3CCC(NC4CCCCC4)C(CO)C3)c(-c3noc(C)n3)cc2c1 (stereo not shown) [compound 328] | 0.00072 |
| CO[C@@H]1CN(c2nc3ccccc3cc2-c2nc(C)no2)CC[C@@H]1NC1CCCCC1 [compound 329] | 0.0122 |
| CCc1noc(-c2cc3cc(C)ccc3nc2N2CC[C@H](NC3CCCCC3)[C@H](OC)C2)n1 [compound 330] | 0.0049 |
| CO[C@H]1CN(c2nc3ccccc3nc2-c2nc(C)no2)CC[C@H]1NC1CCCCC1 [compound 333] | 0.0066 |
| CO[C@@H]1CN(c2nc3ccccc3nc2-c2nc(C)no2)CC[C@@H]1NC1CCCCC1 [compound 334] | 0.161 |
| CO[C@H]1CN(c2nc3ccc(C)cc3cc2-c2nc(C3CC3)no2)CC[C@H]1NC1CCCCC1 [compound 337] | 0.00073 |
| CO[C@H]1CN(c2ncc(C)cc2-c2nc(C)no2)CC[C@H]1N(C1CCCC1)C1CCCC1 [compound 339] | 0.029 |
| CO[C@@H]1CN(c2nc3ccc(C)cc3cc2-c2nc(C3CC3)no2)CC[C@@H]1NC1CCCC1 [compound 340] | 0.006 |
| CO[C@@H]1CN(c2ncc(C)cc2-c2nc(C)no2)CC[C@@H]1NC1CCCCC1 [compound 341] | 0.076 |
| CO[C@@H]1CN(c2nc(C)c(C)cc2-c2nc(C)no2)CC[C@@H]1NC1CCCCC1 [compound 342] | 0.048 |
| CO[C@H]1CN(c2nc3ccccc3cc2-c2ccc(C)nn2)CC[C@H]1NC1CCCCC1 [compound 344] | 0.0168 |
| CO[C@@H]1CN(c2ncc(C)cc2-c2nc(C)no2)CC[C@@H]1NC1CCCC1 [compound 345] | 0.104 |
| CO[C@@H]1CN(c2nc(C)c(C)cc2-c2nc(C)no2)CC[C@@H]1NC1CCCC1 [compound 346] | 0.137 |
| CO[C@@H]1CN(c2nc3ccc(C)cc3cc2-c2nc(C)no2)CC[C@@H]1NC1CCCC1 [compound 347] | 0.032 |
| COC1CN(c2ncc(C)cc2-n2ccc(C)n2)CCC1NC1CCCCC1 (stereo not shown) [compound 358] | 0.009 |
| CO[C@H]1CN(c2nc3c(C)cc(C)cc3cc2-c2nc(C)no2)CC[C@H]1NC1CCCCC1 [compound 362] | 0.003 |
| Cc1cc(C)c2nc(N3CCC(NC4CCOCC4)CC3)c(-c3nc(C)no3)cc2c1 [compound 363] | 0.01 |
